Like-named read-outs stand apart in the source and are kept apart here.
Key:
B. cereus = test: Fluorescence per cell, stained bacteria (microtiter plate reader); format: cell-based, Bacillus cereus; conditions: optimal dye concentration, corrected for cell number
Procedure: (§1) 1. Measured in a fluorescence microtiter plate reader with extraction and
(§2) emission filters at 485+/-10 and 530+/-12, respectively. Fluorescence dat
(§3) are corrected for cell number; but are not corrected for cell volume or
(§4) 2. Optimal dye concentrations determined as in Example 3.
(§5) 3. Suspension concentrations as used for Example 3.
(§6) A culture of E. coli is washed by centrifugation and resuspended in water to its original volume. Using Corning 96-well microtiter plates with flat bottoms, 150 μL volumes of suspension are loaded per well. A single well of sterile water is the well background standard. Using a Dynatech MR600 microplate reader equipped with a 410 nm filter, absorbance is determined for the initial volumes of suspension. The suspension is diluted seven times by serial ten-fold dilutions in water, 150 μL of suspension per well, and the absorbance measured for each dilution. Following the absorbance measurements, each dilution loaded into wells is further diluted 1:10 and plated in duplicate on nutrient growth agar. The colonies are counted and expressed as colony forming units per milliliter (cfu/mL). Using the turbidity of the dilution in the microtiter plate, the suspension is diluted to a density of about 1×10^9 cfu/mL.
(§7) The bacteria suspension, adjusted to a known density as described above, is diluted seven times by serial ten-fold dilutions in water; 150 μL of suspension per well. Three-fold serial dilutions of dye are used (30-0.04 μM); 50 μL of dye at 4× final concentration. Using Corning 96-well microtiter flat-bottom plates, a matrix is set up whereby the cell concentration decreases across the plate and the dye concentration decreases down the plate, final volume per well is 200 μL. The top row and first column are reserved for the control, sterile water. The plate is incubated at 37° C. for 30 minutes, then read in a Millipore Cytofluor™ 2350 96-well fluorescence microplate reader at a fixed excitation of 485+/-10 nm and each of three emission wavelengths, 530+/-12, 620+/-20, or 645+/-20 nm. The results determine the best dye range (30-1 μM) and the best cell concentrations (concentrated through first three ten-fold dilutions) for optimal dye loading. […] Using the four dye dilutions and the four bacterial dilutions, many bacteria and dyes can be assayed quickly. The data collected allow the determination of optimal dye and cell concentration required for maximal fluorescence intensity per cell.

M. luteus = test: as above; format: cell-based, Micrococcus luteus; conditions: optimal dye concentration, corrected for cell number
Procedure: as §1, §2, §3, §4, §5, §6, §7

S. pyogenes = test: as above; format: cell-based, Streptococcus pyogenes; conditions: optimal dye concentration, corrected for cell number
Procedure: as §1, §2, §3, §4, §5, §6, §7

S. aureus = test: as above; format: cell-based, Staphylococcus aureus; conditions: for Fluorescence/Cell (ex 485/em 530): S. aureus, optimal dye concentration, corrected for cell number; for Normalized Fluorescence/cell (ex 485 nm/em 530 nm), Staphylococcus aureus: scaled to thiazole orange
From the text: as §1, §2, §3, §4, §5
(§8) Factors such as degree of fluorescence enhancement with nucleic acid binding, self quenching, molar extinction coefficient, membrane permeability, intracellular partitioning, nucleic acid binding affinity, and quantum yield contribute to the overall fluorescence of nucleic acid stains in cells. Enhanced cell fluorescence obtained with Dye I is related to unexpected properties other than quantum yield alone. Quantum yield is determined as described above (foot note to Table 2). Normalized quantum yield is determined to illustrate the fold-change in quantum yield of Dye I compared with thiazole orange, a related cell-permeant dye. The normalized fluorescence values represent the quantum yield of each dye divided by the quantum yield of thiazole orange. Fluorescence per cell is also scaled to thiazole orange values for both E. coli and S. aureus to allow direct comparison between relative (normalized) quantum yield and relative (normalized) fluorescence/cell.
as §6, §7

E. coli = test: as above; format: cell-based, Escherichia coli; conditions: for Fluorescence/Cell (ex 485/em 530): E. coli, optimal dye concentration, corrected for cell number; for Normalized Fluorescence/cell (ex 485 nm/em 530 nm), Escherichia coli: scaled to thiazole orange
From the text: as §1, §2, §3, §4, §5, §8, §6, §7

S. oranienburg = test: as above; format: cell-based, Salmonella oranienburg; conditions: optimal dye concentration, corrected for cell number
Procedure: as §1, §2, §3, §4, §5, §6, §7

K. pneumonia = test: as above; format: cell-based, Klebsiella pneumonia; conditions: optimal dye concentration, corrected for cell number
Procedure: as §1, §2, §3, §4, §5, §6, §7

S. sonnei = test: as above; format: cell-based, Shigella sonnei; conditions: optimal dye concentration, corrected for cell number
Procedure: as §1, §2, §3, §4, §5, §6, §7

P. aeruginosa = test: as above; format: cell-based, Pseudomonas aeruginosa; conditions: optimal dye concentration, corrected for cell number
Procedure: as §1, §2, §3, §4, §5, §6, §7

nucleic acids = test: Excitation/emission maxima of dyes complexed with nucleic acids; format: physicochemical; design: key: wavelength in nm; conditions: Table 2; dye complexed with nucleic acids
From the text: Dye I is lightly colored and is virtually non-fluorescent when diluted in aqueous solution according to the method of the invention. Dye I is highly membrane-permeant and labels all cells, whether live or dead. When Dye I binds with intracellular nucleic acid polymers such as DNA and RNA, the resultant dye-nucleic acid complex becomes extremely fluorescent upon illumination. The quantum yield of the preferred Dye I/DNA complex is greater than 0.02, typically greater than 0.1, preferably greater than 0.2, and more preferably greater than 0.3. Typically, Dye I combines with intracellular nucleic acids to give a green or red fluorescence. When excited at a wavelength between about 300 nm and about 500 nm, the dyes complexed with nucleic acids have an emission maximum between about 500 and about 610 nm (see Table 2). Preferably, Dye I complexed with nucleic acids has an emission maximum of between about 500 nm and about 535 nm, resulting in a true green fluorescent signal in cells of the sample where Dye I is present alone.

DNA = test: Quantum yield of dye on DNA versus fluorescein; format: physicochemical; conditions: for Normalized QY: QY divided by QY of thiazole orange; for QY (DNA): Table 2, Tris buffered saline pH 10, fluorescein assumed 0.92; for QY: Table 7, on DNA, fluorescein reference
From the text: ^ Quantum yield (QY) of dye on DNA (standard solution in Tris buffere
saline adjusted to pH 10) in comparison with fluorescein, which is assume
to have a quantum yield of 0.92 under the test conditions.
as §8

intact cells = conditions: cited from earlier work; for pH sensitivity / Loading / Retention: in words
calf thymus DNA = conditions: Table 5; bound to excess calf thymus DNA (50 bp/dye); cited from earlier work
[1] = "probably", temperature not stated

Row | Molecule | Fluorescence/Cell (ex 485/em 530) (B. cereus) | Fluorescence/Cell (ex 485/em 530) (M. luteus) | Fluorescence/Cell (ex 485/em 530) (S. pyogenes) | Fluorescence/Cell (ex 485/em 530) (S. aureus) | Normalized Fluorescence/cell (ex 485 nm/em 530 nm), Staphylococcus aureus (S. aureus) | Fluorescence/Cell (ex 485/em 530) (E. coli) | Normalized Fluorescence/cell (ex 485 nm/em 530 nm), Escherichia coli (E. coli) | Fluorescence/Cell (ex 485/em 530) (S. oranienburg) | Fluorescence/Cell (ex 485/em 530) (K. pneumonia) | Fluorescence/Cell (ex 485/em 530) (S. sonnei) | Fluorescence/Cell (ex 485/em 530) (P. aeruginosa) | EM max (nucleic acids) | EX max (nucleic acids) | Normalized QY (DNA) | QY (DNA) (DNA) | QY (DNA) | other results
1 | COC1=CC(=Cc2sc3ccccc3[n+]2C)c2ccccc2N1c1ccccc1 [compound 628] | 613 | 149 | 0.04 | 34 | 10.6 | 28 | 14 | 19 | 20 | 16 | 14 | 506 | 488 | 2.2 | 0.40 | 0.40 | –
2 | CCCCC1=CC(=Cc2oc3ccccc3[n+]2C)c2ccccc2N1c1ccccc1 [compound 624] | 709 | 162 | 0.05 | 44 | 13.8 | 24 | 12 | 15 | 17 | 11 | 14 | 501 | 480 | 3.2 | 0.58 | 0.58 | –
3 | CC1=CC(=Cc2sc3ccccc3[n+]2C)c2ccccc2N1c1ccccc1 [compound 613] | 242 | 75 | 0.02 | 10 | 3.1 | 12 | 6 | 10 | 10 | 6 | 6 | 523 | 506 | 1.8 | 0.33 | 0.33 | –
4 | C[n+]1c(C=C2C=C(Cl)N(c3ccccc3)c3ccccc32)sc2ccccc21 [compound 591] | 58 | 375 | < 0.01 | 3 | 0.9 | 2 | 1 | 2 | 2 | 1 | 1 | 532 | 509 | 0.5 | 0.09 | 0.09 | –
5 | CCCCCCN1C=CC(=Cc2sc3ccccc3[n+]2C)c2ccccc21 [compound 634] | 154 | 58 | 0.03 | 15 | 4.7 | 4 | 2 | 5 | 4 | 4 | 3 | 530 | 510 | 1.0 | 0.18 | 0.18 | –
6 | 5-(and-6)-Carboxy-2',7'-dichloro-fluorescein diacetate | – | – | – | – | – | – | – | – | – | – | – | – | – | – | – | – | pH sensitivity (intact cells): Lower pH-
7 | CC(=O)OCOC(=O)c1ccc2c(c1)C(=O)OC21c2ccc(OC(C)=O)cc2Oc2cc(OC(C)=O)ccc21 [5-Carboxyfluorescein diacetate AM] | – | – | – | – | – | – | – | – | – | – | – | – | – | – | – | – | T1/2 (time for half of dye to leak from intact cells) (intact cells; 37° C.): < 30 min; Loading (intact cells): readily loaded; Retention (intact cells): Moderate
8 | Carboxyfluorescein diacetate | – | – | – | – | – | – | – | – | – | – | – | – | – | – | – | – | T1/2 (time for half of dye to leak from intact cells) (intact cells; 37° C.): < 30 min; Retention (intact cells): Moderate; pH sensitivity (intact cells): sensitive
9 | Carboxynaphtho-fluorescein diacetate | – | – | – | – | – | – | – | – | – | – | – | – | – | – | – | – | pH sensitivity (intact cells): sensitive
10 | CC(=O)Oc1ccc2c(c1)Oc1cc(OC(C)=O)ccc1C21OC(=O)c2ccccc21 [Fluorescein diacetate] | – | – | – | – | – | – | – | – | – | – | – | – | – | – | – | – | T1/2 (time for half of dye to leak from intact cells) (intact cells; 37° C.): < 10 min; Loading (intact cells): Easily loaded; Retention (intact cells): poorly retained
11 | O=C(O)c1ccccc1C1c2cc(Cl)c(O)cc2Oc2cc(O)c(Cl)cc21 [H2 DCF] | – | – | – | – | – | – | – | – | – | – | – | – | – | – | – | – | Retention (intact cells): poor retention; pH sensitivity (intact cells): pH-insensitive
12 | CC(=O)OCOC(=O)CN(CC(=O)OCOC(C)=O)Cc1c(O)ccc2c(C)cc(=O)oc12 [Calcein Blue AM] | – | – | – | – | – | – | – | – | – | – | – | – | – | – | – | – | T1/2 (time for half of dye to leak from intact cells) (intact cells; [1]): < 15 min; Loading (intact cells): Easily loaded
13 | C[n+]1c(C=C2C=CN(c3ccccc3)c3ccccc32)sc2ccccc21 [dye 63] | 93 | 33 | 0.01 | 5 | 1.6 | 6 | 3 | 4 | 5 | 3 | 3 | 531 | 514 | 1.3 | 0.24 | 0.24 | –
14 | C[n+]1c(C=C2C=CN(CCC[N+](C)(C)CCC[N+](C)(C)CCCN3C=CC(=Cc4sc5ccccc5[n+]4C)C=C3)C=C2)sc2ccccc21 [BOBO-1] | – | – | – | – | – | – | – | – | – | – | – | – | – | – | – | – | EM max (calf thymus DNA): 481 nm; EX max (calf thymus DNA): 462 nm
15 | C[n+]1c(C=C2C=CN(CCC[N+](C)(C)C)C=C2)sc2ccccc21 [BO-PRO-1] | – | – | – | – | – | – | – | – | – | – | – | – | – | – | – | – | EM max (calf thymus DNA): 481 nm; EX max (calf thymus DNA): 462 nm
16 | Sulfofluorescein diacetate | – | – | – | – | – | – | – | – | – | – | – | – | – | – | – | – | Loading (intact cells): More difficult; Retention (intact cells): better
17 | Carboxycalcein Blue AM | – | – | – | – | – | – | – | – | – | – | – | – | – | – | – | – | T1/2 (time for half of dye to leak from intact cells) (intact cells; [1]): < 60 min; Loading (intact cells): Easily loaded

From patent US5534416A, “Fluorescent viability assay using cyclic-substituted unsymmetrical cyanine dyes” (Molecular Probes, Inc., priority 1993, dated 1996)
